TGI data for 15 compounds are collected here from PubChem BioAssay (NCI).

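Where inhibition never reached the appropriate level, the endpoint shown equals the highest concentration tested. Otherwise, values were interpolated linearly from a five-concentration, 48-hour dose response in 96-well plates. TGI: total growth inhibition.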

One experiment concerns SNB-75 CNS. Description: growth of human tumour cells (NCI), 48 h.
In the case of `CCCCSC1=N/C(=C\c2ccco2)C(Cl)=N1`, the TGI was > 100 µM.

As for `c1ccc(NN=C(c2ccccn2)c2ccccn2)nc1`, the TGI is > 100 µM.

Turning to `COC1=CC2C(c3cc4ccccc4n3S(=O)(=O)c3ccccc3)CC1CN2C(=O)OCc1ccccc1` (centres undefined), the TGI is 33.7 µM.

For `Cc1cn(C2CC(O)C(CO[Si](C)(C)C(C)(C)C)OC2OC(C)C)c(=O)[nH]c1=O` (centres undefined), the TGI was > 100 µM.

Consider `COc1ccc(-c2csc(Cc3nc4ccccc4c(=O)n3-c3ccc(Cl)cc3)n2)cc1`, for which the TGI was > 100 µM.

On to `O=C(Nc1nncs1)NS(=O)(=O)n1c(=S)sc2ccccc21`, for which the TGI is > 100 µM.

Regarding `Cc1nc2ccc(NC(=S)Nc3ccccc3)cc2c(=O)n1-c1ccccc1`, the TGI was > 100 µM.

As for `COc1ccc2[nH]c3c(c2c1)CC(=S)N1CCCC(CC3=O)C1` (centres undefined), the TGI was > 100 µM.

For `COC(=O)CC1C=CC(C)(OC)OO1` (centres undefined), the TGI was > 100 µM.

Turning to `CCOC(=O)CO/N=C1/C(c2c(O)[nH]c3ccccc23)=Nc2ccccc21`, the TGI worked out at 9.88 µM.

Another experiment deals with NCI/ADR-RES ovarian. The experiment in a line: growth of human tumour cells (NCI), 48 h.
As for `CC(C)CC(NC(=O)C(CI)Cc1ccccc1)C(=O)Nc1ccccc1` (centres undefined), the TGI was > 100 µM.

Consider `O=C1c2cccc3cccc(c23)C2NCCCN12` (centres undefined), for which the TGI is > 100 µM.

Consider `CCCCSC1=N/C(=C\c2ccco2)C(Cl)=N1`, for which the TGI is > 100 µM.

The compound `c1ccc(NN=C(c2ccccn2)c2ccccn2)nc1` showed a TGI of 5.05 µM.

For `CC(=O)O[C@H]1CCC2[C@@H]3CCC4Nc5oncc5C[C@]4(C)C3CC[C@@]21C` (some centres undefined), the TGI was > 10 µM.

With `CCOC(=O)c1nc2ccc(C(F)(F)F)cc2[nH]c1=O`, the TGI was > 100 µM.

Take `COC1=CC2C(c3cc4ccccc4n3S(=O)(=O)c3ccccc3)CC1CN2C(=O)OCc1ccccc1` (centres undefined): the TGI was > 100 µM.

In the case of `Cc1cn(C2CC(O)C(CO[Si](C)(C)C(C)(C)C)OC2OC(C)C)c(=O)[nH]c1=O` (centres undefined), the TGI was > 100 µM.

For `CNC(=S)N=Nc1c(O)n(CN2CCOCC2)c2ccc([N+](=O)[O-])cc12`, the TGI was 38 µM.

With `COc1ccc(-c2csc(Cc3nc4ccccc4c(=O)n3-c3ccc(Cl)cc3)n2)cc1`, the TGI is > 100 µM.

For the compound `O=C(Nc1nncs1)NS(=O)(=O)n1c(=S)sc2ccccc21`, the TGI is > 100 µM.

As for `Cc1nc2ccc(NC(=S)Nc3ccccc3)cc2c(=O)n1-c1ccccc1`, the TGI was > 100 µM.

On to `COc1ccc2[nH]c3c(c2c1)CC(=S)N1CCCC(CC3=O)C1` (centres undefined), for which the TGI was > 100 µM.

`COC(=O)CC1C=CC(C)(OC)OO1` (centres undefined): the TGI was > 100 µM.

In the case of `CCOC(=O)CO/N=C1/C(c2c(O)[nH]c3ccccc23)=Nc2ccccc21`, the TGI is > 100 µM.

The next experiment relates to CAKI-1 renal. Description: growth of human tumour cells (NCI), 48 h.
Take `CC(C)CC(NC(=O)C(CI)Cc1ccccc1)C(=O)Nc1ccccc1` (centres undefined): the TGI was > 100 µM.

`O=C1c2cccc3cccc(c23)C2NCCCN12` (centres undefined): the TGI is > 100 µM.

As for `CCCCSC1=N/C(=C\c2ccco2)C(Cl)=N1`, the TGI was > 100 µM.

Turning to `c1ccc(NN=C(c2ccccn2)c2ccccn2)nc1`, the TGI was > 100 µM.

In the case of `CC(=O)O[C@H]1CCC2[C@@H]3CCC4Nc5oncc5C[C@]4(C)C3CC[C@@]21C` (some centres undefined), the TGI was > 10 µM.

Consider `CCOC(=O)c1nc2ccc(C(F)(F)F)cc2[nH]c1=O`, for which the TGI is > 100 µM.

Take `COC1=CC2C(c3cc4ccccc4n3S(=O)(=O)c3ccccc3)CC1CN2C(=O)OCc1ccccc1` (centres undefined): the TGI is > 100 µM.

With `Cc1cn(C2CC(O)C(CO[Si](C)(C)C(C)(C)C)OC2OC(C)C)c(=O)[nH]c1=O` (centres undefined), the TGI is > 100 µM.

Consider `CNC(=S)N=Nc1c(O)n(CN2CCOCC2)c2ccc([N+](=O)[O-])cc12`, for which the TGI turned out to be 64.1 µM.

For the compound `COc1ccc(-c2csc(Cc3nc4ccccc4c(=O)n3-c3ccc(Cl)cc3)n2)cc1`, the TGI is > 100 µM.

With `O=C(Nc1nncs1)NS(=O)(=O)n1c(=S)sc2ccccc21`, the TGI is > 100 µM.

As for `Cc1nc2ccc(NC(=S)Nc3ccccc3)cc2c(=O)n1-c1ccccc1`, the TGI is > 100 µM.

Consider `COc1ccc2[nH]c3c(c2c1)CC(=S)N1CCCC(CC3=O)C1` (centres undefined), for which the TGI was > 100 µM.

Take `COC(=O)CC1C=CC(C)(OC)OO1` (centres undefined): the TGI was > 100 µM.

Consider `CCOC(=O)CO/N=C1/C(c2c(O)[nH]c3ccccc23)=Nc2ccccc21`, for which the TGI is > 100 µM.

The subject of another experiment is SNB-19 CNS. The experiment in a line: growth of human tumour cells (NCI), 48 h.
`CC(C)CC(NC(=O)C(CI)Cc1ccccc1)C(=O)Nc1ccccc1` (centres undefined): the TGI is > 100 µM.

With `O=C1c2cccc3cccc(c23)C2NCCCN12` (centres undefined), the TGI was > 100 µM.

Regarding `CCCCSC1=N/C(=C\c2ccco2)C(Cl)=N1`, the TGI is > 100 µM.

For the compound `c1ccc(NN=C(c2ccccn2)c2ccccn2)nc1`, the TGI is > 100 µM.

Take `CC(=O)O[C@H]1CCC2[C@@H]3CCC4Nc5oncc5C[C@]4(C)C3CC[C@@]21C` (some centres undefined): the TGI is > 10 µM.

Regarding `CCOC(=O)c1nc2ccc(C(F)(F)F)cc2[nH]c1=O`, the TGI is > 100 µM.

Turning to `Cc1cn(C2CC(O)C(CO[Si](C)(C)C(C)(C)C)OC2OC(C)C)c(=O)[nH]c1=O` (centres undefined), the TGI is > 100 µM.

Consider `CNC(=S)N=Nc1c(O)n(CN2CCOCC2)c2ccc([N+](=O)[O-])cc12`, for which the TGI turned out to be 61.2 µM.

Regarding `COc1ccc(-c2csc(Cc3nc4ccccc4c(=O)n3-c3ccc(Cl)cc3)n2)cc1`, the TGI was found to be 77.7 µM.

Turning to `O=C(Nc1nncs1)NS(=O)(=O)n1c(=S)sc2ccccc21`, the TGI was > 100 µM.

On to `Cc1nc2ccc(NC(=S)Nc3ccccc3)cc2c(=O)n1-c1ccccc1`, for which the TGI was > 100 µM.

Turning to `COc1ccc2[nH]c3c(c2c1)CC(=S)N1CCCC(CC3=O)C1` (centres undefined), the TGI is > 100 µM.

For the compound `COC(=O)CC1C=CC(C)(OC)OO1` (centres undefined), the TGI is > 100 µM.

`CCOC(=O)CO/N=C1/C(c2c(O)[nH]c3ccccc23)=Nc2ccccc21` displayed a TGI of 89.4 µM.

Another experiment concerns KM12 colon. Description: growth of human tumour cells (NCI), 48 h.
For the compound `CC(C)CC(NC(=O)C(CI)Cc1ccccc1)C(=O)Nc1ccccc1` (centres undefined), the TGI was > 100 µM.

As for `O=C1c2cccc3cccc(c23)C2NCCCN12` (centres undefined), the TGI was > 100 µM.

Take `CCCCSC1=N/C(=C\c2ccco2)C(Cl)=N1`: the TGI was > 100 µM.

As for `c1ccc(NN=C(c2ccccn2)c2ccccn2)nc1`, the TGI is > 100 µM.

As for `CC(=O)O[C@H]1CCC2[C@@H]3CCC4Nc5oncc5C[C@]4(C)C3CC[C@@]21C` (some centres undefined), the TGI is > 10 µM.

For `CCOC(=O)c1nc2ccc(C(F)(F)F)cc2[nH]c1=O`, the TGI is > 100 µM.

As for `COC1=CC2C(c3cc4ccccc4n3S(=O)(=O)c3ccccc3)CC1CN2C(=O)OCc1ccccc1` (centres undefined), the TGI was > 100 µM.

Regarding `Cc1cn(C2CC(O)C(CO[Si](C)(C)C(C)(C)C)OC2OC(C)C)c(=O)[nH]c1=O` (centres undefined), the TGI is > 100 µM.

In turn, `CNC(=S)N=Nc1c(O)n(CN2CCOCC2)c2ccc([N+](=O)[O-])cc12` displayed a TGI of 97.9 µM.

Consider `COc1ccc(-c2csc(Cc3nc4ccccc4c(=O)n3-c3ccc(Cl)cc3)n2)cc1`, for which the TGI was > 100 µM.

Consider `O=C(Nc1nncs1)NS(=O)(=O)n1c(=S)sc2ccccc21`, for which the TGI was > 100 µM.

Consider `Cc1nc2ccc(NC(=S)Nc3ccccc3)cc2c(=O)n1-c1ccccc1`, for which the TGI is > 100 µM.

Regarding `COc1ccc2[nH]c3c(c2c1)CC(=S)N1CCCC(CC3=O)C1` (centres undefined), the TGI was > 100 µM.

On to `COC(=O)CC1C=CC(C)(OC)OO1` (centres undefined), for which the TGI is > 100 µM.

As for `CCOC(=O)CO/N=C1/C(c2c(O)[nH]c3ccccc23)=Nc2ccccc21`, the TGI is > 100 µM.
